Measured values taken from patent US7229621B2, “Method to enhance the immunogenicity of an antigen” (Torrey Pines Institute for Molecular Studies, priority 1998, dated 2007).

Tests used:
[1] = test system: Langerhans cells (immature dendritic cells); assay: FITC screening assay: Langerhans/dendritic cell migration to draining inguinal lymph node after topical FITC in acetone plus migration inducer; assay type: in vivo, C57BL/6 mice; details: for Amt. Antigen/DC (mean fluorescence intensity of the dendritic cells) / Total DC (FITC+ plus FITC- dendritic cells per lymph node) / Antigen^+ DC (FITC+ MHC class II^Hi cells per lymph node): FITC 5 mg/ml in 50:50 acetone and test agent; for Amt. Antigen/DC (mean fluorescence intensity of the dendritic cells) / Total DC (FITC+ plus FITC- dendritic cells per lymph node): 48 hrs later; for Antigen^+ DC (FITC+ MHC class II^Hi cells per lymph node): inguinal lymph nodes 48 hrs later; for effect on FITC+ and total dendritic cell migration into the lymph node: topical FITC in acetone plus agent on shaved abdominal skin, 2 days after treatment (FIG. 1)
Text: Fluorescein isothiocyanate (FITC) has been used extensively by the inventor and others, to characterize Langerhans cell migration. FITC is a small (389 Da) non-peptide, largely lipophilic molecule, capable of crossing the stratum corneum. The antigenicity of FITC is due to the reactivity of its isothiocyanate group (—N═C═S) with free amino groups, permitting it to be covalently bound to proteins and/or peptides. C57BL/6 mice received the following treatments: 1) none; 2) shaving of the abdominal skin only; or shaving of the abdominal skin followed by either 3) topical administration of FITC in acetone; 4) topical administration of FITC in acetone and olive oil; 5) topical administration of FITC in acetone and DMSO diluted in phosphate buffered saline (PBS); or 6) topical administration of FITC in acetone and dibutyl phthalate. The draining inguinal lymph nodes were then examined for immigrant dendritic cells by immunofluorescent flow cytometry each day thereafter. Migratory Langerhans cells were identified by the presence of FITC and co-expression of high MHC class II molecules or by co-expression of the DEC 205 ligand for the monoclonal antibody, NLDC-145. Dendritic cell residents of the lymph nodes could be differentiated by their high expression of MHC class II molecules but lack of FITC, or by their lack of FITC but co-expression of the ligand for the dendritic cell-specific monoclonal antibody, 33D1. The uptake of FITC and the Langerhans cell response to migratory signals were observable in the draining lymph node as early as six hours after topical administration. However, 48–72 hours was required for maximal immigration of FITC-bearing Langerhans cells into the lymph node. FIG. 1 illustrates the effect of various treatment regimens on the total and FITC+ dendritic cells 2 days after treatment. […] Thus, dibutyl phthalate was a very potent migration inducer.
Compounds which are useful as inducers of immature dendritic cell migration may be screened using the standard FITC methods described for the data presented in FIGS. 1—3. C57BL6 mice are shaved on their abdomens and painted with 100–200 μl of the test solution, containing 5 mg/ml FITC in a 50/50 (v/v) mixture of acetone and the migration inducer (e.g. dibutyl phthalate). After 2 days, the draining inguinal lymph nodes are removed and the total number of dendritic cells (both FITC+ and FITC−) is determined by flow cytometry and MHC class II immunofluorescence or other markers specific for dendritic cells.
The antigen employed was FITC and the procedure was identical to that used for the experiments depicted in FIG. 1. Namely, FITC at 5 mg/ml was dissolved in a 50:50 solution of acetone and the test agents for migration induction. The test agents used in this experiment were: dibutylfumarate (Agent #1); diisooctylmaleate (Agent #2); and dibutyl-D-tartarate (Agent #3). The inguinal lymph nodes were examined 48 hrs later for the presence of FITC+ and FITC-dendritic cells as detailed previously.
The antigen used was FITC, which was applied topically to the shaved abdominal skin of C57BL/6 mice at 5 mg/ml in a 50:50 solution of dibutyl phthalate and acetone. Each of the applications was identical, with half of the mice in each group receiving the first application only (none) and half receiving the first application followed by a second application at the specified interval (14 days or 21 days) after the first application. The inguinal lymph node cells were examined by flow cytometry for FITC+ dendritic cells, as detailed previously, 48 hrs after each treatment.

E.G7-OVA tumor cells = assay: E.G7-OVA tumor growth after immunization with tumor antigen and migration inducer; assay type: in vivo, C57BL/6 mice; details: 50 μl of 1.25 mM OVA in HBSS injected, DBP in acetone topically an hour later; tumor inoculation one month later (FIG. 12)
Text: The tumor cell, E.G7-OVA, is the C57BL/6 EL4 thymoma transfected with the complete gene for chicken ovalbumin (OVA). The transfected cell line expresses OVA protein, which is also processed naturally by E.G7-OVA cells into an eight amino acid peptide, OVA257-264, with the sequence […]. […] Based on the positive results using FITC, the inventors followed a similar protocol in an attempt to induce immunity to the E.G7-OVA tumor by topical administration of the well-characterized, synthetic […] tumor-associated peptide.
C57BL/6 mice were treated as follows: 1) shaving alone; 2) topical administration of acetone and dibutyl phthalate; 3) topical administration of […] (240 μg/ml) in DMSO diluted in PBS, followed in 5 hours by acetone and dibutyl phthalate; and 4) topical administration of […] (240 μg/ml) in acetone and dibutyl phthalate. All mice were subsequently injected subcutaneously with 5×10^5 E.G7-OVA cells (5-times the minimal tumorogenic dose). Tumor-specific immunity was monitored by measuring the size of the developing tumor.
The mucous membranes lack the tough barrier posed by the stratum corneum of the skin. […] The EL4 parent tumor cell line, lacking chicken ovalbumin, was used as a negative control; no immunity against the EL4 tumor cells was seen. Thus, the inventors' hypothesis regarding penetration of the stratum corneum was confirmed; the […] peptide was not effectively reaching the immature dendritic cells, known as Langerhans cells, underlying the stratum corneum.
To enhance the effectiveness of cutaneous topical administration of peptide, […] was dissolved in DMSO and applied to the skin without further dilution. Dibutyl phthalate in a 50:50 mixture with acetone was applied to the same site 5 hr later. All mice were subsequently injected subcutaneously with 5×10^5 E.G7-OVA cells. The results shown in FIG. 6 indicate that the peptide in concentrated DMSO was apparently able to traverse the stratum corneum, effectively gaining access to the epidermal Langerhans cells. […] Thus, the tumor-specific peptide, […], in concentrated DMSO, penetrated the stratum corneum in sufficient concentration to be incorporated into the MHC class I molecule K^b on epidermal Langerhans cells, and in the presence of the migration inducer, dibutyl phthalate, was effectively presented to CD8+ CTLs in the draining lymph nodes.
To confirm the immunogenicity of the disclosed treatment, groups of 10 C57BL/6 mice were injected with 50 μl of 1.25 mM OVA protein in HBSS, with HBSS alone, or with nothing. This was followed an hour later by topical application of DBP in acetone or with nothing. One month later, the mice were inoculated subcutaneously with 5×10^5 EL4 tumor cells or with 5×10^5 E.G7-OVA tumor cells and subsequent tumor growth was measured.

[2] = test system: dendritic cells in draining lymph node; assay: Antigen-bearing dendritic cells in lymph nodes after injection of soluble protein or peptide with or without topical migration inducer; assay type: in vivo, mice
Experimental: The injections were followed 2 hours later by topical application of dibutyl phthalate and acetone to the abdominal skin. The antigen-bearing dendritic cells that had migrated to the draining lymph node two days later were analyzed as described above and are shown in the upper right quadrant of each dot plot.
This was followed 2 hrs later by: A) no further treatment, or B) topical application of dibutyl phthalate and acetone to the abdominal skin. The antigen-bearing dendritic cells that had migrated to the draining lymph node two days later are shown in the upper right quadrant of each dot plot.
As stated previously, whether mature antigen-bearing dendritic cells will be encountered by and activate naive T cells in the lymph node is likely to depend not only on the number of antigen-bearing dendritic cells that enter the node, but also on the density of MHC:peptide complexes expressed on their membranes.

[3] = test system: dendritic cells in draining lymph node; assay: Antigen-bearing dendritic cells in lymph node after aqueous antigen applied to skin with DBP and acetone; assay type: in vivo; details: aqueous solution applied to the skin with topical DBP and acetone (data not shown)
Text: Similarly, when an aqueous solution of a […] peptide or OVA protein antigen was applied to the skin along with topical application of the migration inducer, DBP and acetone, no detectable antigen-bearing (i.e., K^b:[…] positive) dendritic cells appeared in the draining lymph node (data not shown).

[4] = 1st treatment day 1, 2nd none, assay day 16
[5] = 1st treatment day 1, 2nd none, assay day 23
[6] = 1st treatment day 1, 2nd treatment day 14, assay day 16
[7] = 1st treatment day 1, 2nd treatment day 21, assay day 23
[8] = FITC 5 mg/ml in 50:50 dibutyl phthalate and acetone, 1st treatment day 1, 2nd none, assay day 2
[9] = 20 μl of 0.5 mM in HBSS injected, dibutyl phthalate and acetone 2 hours later, two days later

`CCCCOC(=O)[C@@H](O)[C@H](O)C(=O)OCCCC` [DBT, dibutyl-D-tartarate] was tested, and the “Amt. Antigen/DC (mean fluorescence intensity of the dendritic cells)” value (from here on “Amt. Antigen/DC”) [1] was 364 arbitrary units, the “Total DC (FITC+ plus FITC- dendritic cells per lymph node)” value [1] was 29,050 cells per lymph node and the “Antigen^+ DC (FITC+ MHC class II^Hi cells per lymph node)” value [1] was 14,175 cells per lymph node.

In the case of `C[S+](C)[O-]` [DMSO, dimethylsulfoxide], the “effect on FITC+ and total dendritic cell migration into the lymph node” value [1] is reported as “no enhancement”.

With `CCCCOC(=O)/C=C/C(=O)OCCCC` [Test Agent #1, dibutylfumarate] the “Amt. Antigen/DC” value [1] was 994 arbitrary units, the “Total DC (FITC+ plus FITC- dendritic cells per lymph node)” value [1] was 10,088 cells per lymph node and the “Antigen^+ DC (FITC+ MHC class II^Hi cells per lymph node)” value [1] was 4,242 cells per lymph node.

With `CC(C)CCCCCOC(=O)/C=C\C(=O)OCCCCCC(C)C` [Test Agent #2, diisooctylmaleate] the “Amt. Antigen/DC” value [1] was 1032 arbitrary units, the “Total DC (FITC+ plus FITC- dendritic cells per lymph node)” value [1] was 7,927 cells per lymph node and the “Antigen^+ DC (FITC+ MHC class II^Hi cells per lymph node)” value [1] was 5,340 cells per lymph node.

For `CCCCOC(=O)c1ccccc1C(=O)OCCCC` [dibutyl phthalate], the “Antigen-bearing Dendritic Cells/Node” value [1, 4] was 1,776, the “Cells per Lymph Node” value [1, 4] was 4.52 × 10^6 and the “Antigen-bearing Dendritic Cells/Node” value [1, 5] was 0. The “Cells per Lymph Node” value [1, 5] was 3.87 × 10^6, the “Antigen-bearing Dendritic Cells/Node” value [1, 6] was 99,840 and the “Cells per Lymph Node” value [1, 6] was 1.28 × 10^7. The “Antigen-bearing Dendritic Cells/Node” value [1, 7] was 49,203, the “Cells per Lymph Node” value [1, 7] was 6.93 × 10^6 and the “Antigen-bearing Dendritic Cells/Node” value [1, 8] was 64,220. The “Cells per Lymph Node” value [1, 8] was 6.76 × 10^6, the “FITC+ Langerhans cells present in the lymph node” value ([1]; by 12 hours after FITC in acetone and dibutyl phthalate (FIG. 2)) was “High numbers” and the “increase of lymph node cell population over baseline levels” value ([1]; five days after topical FITC in acetone and dibutyl phthalate (FIG. 3)) was “approximately 7.2 fold”. The “effect on FITC+ and total dendritic cell migration into the lymph node” value [1] was “striking effect”.

B1: OVA: Chicken ovalbumin, a 40 kDa protein used as prototypic experimental antigen (protein, UniProt P01012 2-386, looked up)
Ovalbumin: GSIGAASMEFCFDVFKELKVHHANENIFYCPIAIMSALAMVYLGAKDSTRTQINKVVRFDKLPGFGDSIEAQCGTSVNVHSSLRDILNQITKPNDVYSFSLASRLYAEERYPILPEYLQCVKELYRGGLEPINFQTAADQARELINSWVESQTNGIIRNVLQPSSVDSQTAMVLVNAIVFKGLWEKAFKDEDTQAMPFRVTEQESKPVQMMYQIGLFRVASMASEKMKILELPFASGTMSMLVLLPDEVSGLEQLESIINFEKLTEWTSSNVMEERKIKVYLPRMKMEEKYNLTSVLMAMGITDVFSSSANLSGISSAESLKISQAVHAAHAEINEAGREVVGSAEAGVDAASVSEEFRADHPFLFCIKHIATNAVLFFGRCVSP
In the case of B1, the “tumor protection against E.G7-OVA” value (E.G7-OVA tumor cells) is reported as “tumor protection”, the “Total Cells per Lymph Node” value ([2]; 20 μl of 0.5 mM in HBSS injected at two sites in abdominal skin, dibutyl phthalate and acetone topically 2 hours later, two days later) is reported as 8.8 × 10^6 and the “Dendritic Cells per Lymph Node” value [2, 9] is reported as 137,456. The “K^b:SIINFEKL^+ DC per LymphNode” value [2, 9] was 61,424, the Enhancement ([2]; K^b:SIINFEKL+ DC versus HBSS injection) was 31× and the “increase in the number of antigen-bearing dendritic cells in the draining lymph nodes” value ([2]; injection followed by topical induction of migration, two days later) was 31 fold. The “antigen-bearing (K^b:SIINFEKL positive) dendritic cells in the draining lymph node” value [3] was “no detectable”.
